Test results from US20110269763A1, “CRTH2 receptor ligands for medicinal uses” (7TM Pharma A/S, priority 2004, published 2011).

These compounds were tested against T1, human CRTH2 (Homo sapiens, UniProt Q9Y5Y4, V204A) (assay: Functional antagonist BRET assay on HEK293 cells stably expressing human CRTH2-Rluc and GFP2-β-arr2). Conditions: BRET, antagonist incubated 15 minutes prior to agonist; read-out: Antag. IC50.
T1 sequence (Q9Y5Y4 1-395 V204A): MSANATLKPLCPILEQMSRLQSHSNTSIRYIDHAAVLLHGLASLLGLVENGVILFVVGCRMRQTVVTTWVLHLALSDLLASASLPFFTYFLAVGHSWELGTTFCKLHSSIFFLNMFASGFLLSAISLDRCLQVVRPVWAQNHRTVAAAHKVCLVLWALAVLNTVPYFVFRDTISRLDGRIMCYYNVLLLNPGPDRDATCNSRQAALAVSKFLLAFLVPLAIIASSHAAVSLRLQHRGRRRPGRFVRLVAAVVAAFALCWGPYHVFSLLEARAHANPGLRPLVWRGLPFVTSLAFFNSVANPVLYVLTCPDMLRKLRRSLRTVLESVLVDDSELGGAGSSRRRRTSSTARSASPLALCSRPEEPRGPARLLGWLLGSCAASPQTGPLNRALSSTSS
Assay type: cell-based
Design: expressed in transfected cells
From the text: (§1) Generation/origin of the cDNA Constructs. The coding sequence of the human CRTH2 receptor (genbank accession no NM_004778) was amplified by PCR from a human hippocampus cDNA library and inserted into the pcDNA3.1(+) expression vector (invitrogen) via 5′ HindIII and 3′ EcoRI. To generate a CRTH2-Renilla luciferase (CRTH2-Rluc) fusion protein, the CRTH2 coding sequence without a STOP codon and Rluc were amplified, fused in frame by PCR and subcloned into the pcDNA3.1(+)Zeo expression vector (invitrogen). Human β-arrestin2 (β-arr2) N-terminally tagged with GFP^2 (βarr2-GFP^2) and Renilla luciferase were purchased from BioSignal Packard Inc, (Montreal, Canada). The sequence identity of the construct was verified by restriction endonuclease digests and sequencing in both directions on an ABI Prism (Applied Biosystems, Foster City, Calif.).
(§2) Cell Culture and Transfection. COS-7 cells were grown in Dulbecco's modified Eagle's medium (DMEM) 1885 supplemented with 10% fetal bovine serum, 100 units/ml penicillin, […] streptomycin, and kept at 37° C. in a 10% CO2 atmosphere. HEK293 cells were maintained in Minimum Essential medium (MEM) supplemented with 10% (v/v) heat inactivated fetal calf serum (HIFCS), 2 mM Glutamax™-I, 1% non essential amino acids (NEAA), 1% sodium pyruvate and 10 μg/ml gentamicin. For binding experiments, COS7 cells were transiently transfected with the CRTH2 receptor using a calcium phosphate-DNA coprecipitation method with the addition of chloroquine (as described by Holst et al., 2001↓). To perform the functional Bioluminescence Resonance Energy Transfer (BRET) assays, a HEK293 cell clone stably expressing βarr2-GFP^2 and CRTH2-Rluc was generated (CRTH2-HEK293 cells).
BRET assay. Functional BRET assays were performed on HEK293 cells stably expressing human CRTH2-Rluc and GFP^2-β-arr2. Prior to their use in the BRET assay cells were detached and re-suspended in D-PBS with 1000 mg/L L-Glucose at a density of 2×10^6 cells/mL. DeepBlueC™ was diluted to 50 μM in D-PBS with 1000 mg/L L-Glucose (light sensitive). 100 μL of cell suspension was transferred to wells in a 96-well microplate (white OptiPlate) and placed in the Mithras LB 940 instrument (BERTHOLD TECHNOLOGIES, Bad Wildbad, Germany). 12 μL/well agonist was then injected by injector 1 and 10 μL/well DeepBlueC™ was injected simultaneously by injector 2. Five seconds after the injections the light output from the well was measured sequentially at 400 nm and 515 nm, and the BRET signal (mBRET ratio) was calculated by the ratio of the fluorescence emitted by GFP^2-β-arr2 (515 nm) over the light emitted by the receptor-Rluc (400 nm). Antagonists were added before placing the microplates into the Mithras LB 940 and allowed to incubate for 15 minutes prior to the addition of agonist and DeepBlueC™. Compounds were dissolved in DMSO and the final DMSO concentration was kept constant at 1% in the assay.
(§3) Curve analysis was performed with the GraphPadPrism software 3.0 (Graphpad Prism Inc., San Diego, USA) and IC50 values were calculated as a measure of the antagonistic potencies.

IC50 [nM] | SMILES
< 500 | O=C(O)COc1ccc(Br)cc1CC1SC(=O)N(Cc2ccc(Cl)cc2)C1=O (centres unmarked) [D141, 4-Bromo-2-[3-(4-chlorobenzyl)-2,4-dioxothiazolidin-5-ylmethyl]phenoxyacetic acid]
> 5000 | CCOc1ccc(OCC(=O)O)c(C(=O)c2cnn(-c3ccccc3)c2)c1 [D74, [4-Ethoxy-2-(1-phenyl-1H-pyrazole-4-carbonyl)phenoxy]acetic acid]
< 500 | Cc1cccc(C)c1-n1cc(C(=O)c2cc(Br)ccc2OC(C)C(=O)O)cn1 (centres unmarked) [D77, 2-{4-Bromo-2-[1-(2,6-dimethylphenyl)-1H-pyrazole-4-carbonyl]phenoxy}propionic acid]
< 500 | CCOc1ccccc1-n1cc(C(=O)c2cc(Br)ccc2OC(C)C(=O)O)cn1 (centres unmarked) [D48, 2-{4-Bromo-2-[1-(2-ethoxyphenyl)-1H-pyrazole-4-carbonyl]phenoxy}propionic acid]
500 to 5000 | O=C(O)COc1ccc(Br)cc1C=NNc1nncc(-c2ccccc2)n1 [D152]
< 500 | CC(Oc1ccc(Br)cc1C(=O)c1cnn(-c2ccc(Br)cc2Br)c1)C(=O)O (centres unmarked) [D69, 2-{4-Bromo-2-[1-(2,4-dibromophenyl)-1H-pyrazole-4-carbonyl]phenoxy}propionic acid]
500 to 5000 | O=C(O)COc1ccc(F)cc1C(=O)c1cnn(-c2ccccc2)c1 [D3, 4-Fluoro-2-(1-phenyl-1H-pyrazole-4-carbonyl)phenoxyacetic acid]
< 500 | O=C(O)COc1ccc(Br)cc1-c1csc(-c2ccccc2)n1 [D93, [4-Bromo-2-(2-phenylthiazol-4-yl)phenoxy]acetic acid]
< 500 | COc1cccc(Cc2nc(-c3cc(Br)ccc3OCC(=O)O)co2)c1 [D89, {4-Bromo-2-[2-(3-methoxybenzyl)oxazol-4-yl]phenoxy}acetic acid]
< 500 | O=C(O)COc1ccc(Br)cc1C(=O)c1cnn(-c2cccc3ccccc23)c1 [D82, [4-Bromo-2-(1-naphthalen-1-yl-1H-pyrazole-4-carbonyl)phenoxy]acetic acid]
< 500 | CSc1ccccc1-n1cc(C(=O)c2cc(Br)ccc2OCC(=O)O)cn1 [D44, {4-Bromo-2-[1-(2-methylthiophenyl)-1H-pyrazole-4-carbonyl]phenoxy}acetic acid]
< 500 | O=C(O)COc1ccc(Br)cc1C(=O)c1cnn(-c2ccccc2Br)c1 [D21, 4-Bromo-2-[1-(2-bromophenyl)-1H-pyrazole-4-carbonyl]phenoxyacetic acid]
500 to 5000 | O=C(O)COc1ccc(Br)cc1-c1nc(-c2ccccc2)co1 [D96, [4-Bromo-2-(4-phenyl-oxazol-2-yl)-phenoxy]acetic acid]

Each compound was assayed against T1, human CRTH2 (assay: Receptor binding assay: [3H]PGD2 competition binding on whole COS-7 cells transiently transfected with CRTH2 (also stable HEK293 cells)). Conditions: competition with 0.1 nM [3H]PGD2, whole cells, 3 h at 4° C.
Design: expressed in transfected cells; host or cells: COS-7 (transient, calcium phosphate)
From the text: as §1, §2
Binding assay. 24 h after transfection COS-7 cells were seeded into 96 well plates at a density of 30.000 cells/well. Competition binding experiments on whole cells were then performed about 18-24 h later using 0.1 nM [^3H]PGD2 (NEN, 172 Ci/mmol) in a binding buffer consisting of HBSS (GIBCO) and 10 mM HEPES. Competing ligands were diluted in DMSO which was kept constant at 1% (v/v) of the final incubation volume. Total and nonspecific binding were determined in the absence and presence of 10 μM PGD2. Binding reactions were routinely conducted for 3 h at 4° C. and terminated by 2 washes (100 μl each) with ice cold binding buffer. Radioactivity was determined by liquid scintillation counting in a TOPCOUNTER (Packard) following over night incubation in Microscint 20. Stable HEK293 cells were seeded at a density of 30.000 cells/well 18-24 h prior to the binding assay which was performed essentially as described for COS7 cells above. Determinations were made in duplicates.
as §3

IC50 [nM] | SMILES
< 500 | O=C(O)COc1ccc(Br)cc1CC1SC(=O)N(Cc2ccc(Cl)cc2)C1=O (centres unmarked) [D141, 4-Bromo-2-[3-(4-chlorobenzyl)-2,4-dioxothiazolidin-5-ylmethyl]phenoxyacetic acid]
500 to 5000 | CCOc1ccc(OCC(=O)O)c(C(=O)c2cnn(-c3ccccc3)c2)c1 [D74, [4-Ethoxy-2-(1-phenyl-1H-pyrazole-4-carbonyl)phenoxy]acetic acid]
< 500 | Cc1cccc(C)c1-n1cc(C(=O)c2cc(Br)ccc2OC(C)C(=O)O)cn1 (centres unmarked) [D77, 2-{4-Bromo-2-[1-(2,6-dimethylphenyl)-1H-pyrazole-4-carbonyl]phenoxy}propionic acid]
< 500 | CCOc1ccccc1-n1cc(C(=O)c2cc(Br)ccc2OC(C)C(=O)O)cn1 (centres unmarked) [D48, 2-{4-Bromo-2-[1-(2-ethoxyphenyl)-1H-pyrazole-4-carbonyl]phenoxy}propionic acid]
< 500 | O=C(O)COc1ccc(Br)cc1C=NNc1nncc(-c2ccccc2)n1 [D152]
< 500 | CC(Oc1ccc(Br)cc1C(=O)c1cnn(-c2ccc(Br)cc2Br)c1)C(=O)O (centres unmarked) [D69, 2-{4-Bromo-2-[1-(2,4-dibromophenyl)-1H-pyrazole-4-carbonyl]phenoxy}propionic acid]
< 500 | O=C(O)COc1ccc(F)cc1C(=O)c1cnn(-c2ccccc2)c1 [D3, 4-Fluoro-2-(1-phenyl-1H-pyrazole-4-carbonyl)phenoxyacetic acid]
< 500 | O=C(O)COc1ccc(Br)cc1-c1csc(-c2ccccc2)n1 [D93, [4-Bromo-2-(2-phenylthiazol-4-yl)phenoxy]acetic acid]
< 500 | COc1cccc(Cc2nc(-c3cc(Br)ccc3OCC(=O)O)co2)c1 [D89, {4-Bromo-2-[2-(3-methoxybenzyl)oxazol-4-yl]phenoxy}acetic acid]
< 500 | O=C(O)COc1ccc(Br)cc1C(=O)c1cnn(-c2cccc3ccccc23)c1 [D82, [4-Bromo-2-(1-naphthalen-1-yl-1H-pyrazole-4-carbonyl)phenoxy]acetic acid]
< 500 | CSc1ccccc1-n1cc(C(=O)c2cc(Br)ccc2OCC(=O)O)cn1 [D44, {4-Bromo-2-[1-(2-methylthiophenyl)-1H-pyrazole-4-carbonyl]phenoxy}acetic acid]
< 500 | O=C(O)COc1ccc(Br)cc1C(=O)c1cnn(-c2ccccc2Br)c1 [D21, 4-Bromo-2-[1-(2-bromophenyl)-1H-pyrazole-4-carbonyl]phenoxyacetic acid]
< 500 | O=C(O)COc1ccc(Br)cc1-c1nc(-c2ccccc2)co1 [D96, [4-Bromo-2-(4-phenyl-oxazol-2-yl)-phenoxy]acetic acid]
